Data as given in patent publication US20220315574A1, “Beta-Arrestin-Modulating Compounds and Methods of Using Same” (Duke University, priority 2019, published 2022).
Where a name gives a salt, the structure may show the parent alone.

Tests used:
βarr2 = βarr2 (Rattus norvegicus, UniProt P29067); experiment: Negative-stain electron microscopy, 2D class averages of βarr2; set-up: final βarr2 (truncated βarr2 at 394) concentration of ˜1 mg/mL; made in house
Description: To prepare for EM visualization of the architecture and structural organization of βarr2-Cmpd30 complexes, purified βarr2 (394) was diluted to 0.5 μM and incubated with 5 μM Cmpd-30 or vehicle (DMSO) in HN buffer (20 mM HEPES pH 7.4 and 150 mM NaCl) for 7 min at room temperature followed by dilution 10× into HN buffer containing 1 μM Cmpd-30, before negative staining. The positive control, βarr2 bound to IP6 sample was prepared similarly (5 μM and 250 μM, respectively) and was diluted 100× into HN buffer containing 10 μM IP6. Grids were prepared using conventional negative-staining protocols as described previously (Peisley, A. & Skiniotis, G. 2D Projection Analysis of GPCR Complexes by Negative Stain Electron Microscopy. Methods Mol Biol 1335, 29-38, doi:10.1007/978-1-4939-2914-6_3 (2015). Briefly, 3 μL of samples were applied onto a glow-discharged EM carbon-coated copper grid, adsorbed on the grid surface, blotted, stained, and air dried before imaging. EM grids were examined with a FEI Tecnai G2 Twin electron microscope and operated at an acceleration voltage of 120 kV. Images were recorded with an Eagle 2K CCD camera at a magnification of ×65,200 and a defocus value of ˜1.5 μm. Two-dimensional EM reference-free alignment and classification of particle projections were performed with the iterative stable alignment and clustering procedure (ISAC)(Yang, Z., et al., Iterative stable alignment and clustering of 2D transmission electron microscope images. Structure 20, 237-247, doi:10.1016/j.str.2011.12.007 (2012)). EM single particles were both automatically and manually selected using Boxer (part of the EMAN 2.1 software suite)(Tang, G. et EMAN2: an extensible image processing suite for electron microscopy. J Struct Biol 157, 38-46, doi:10.1016/j.jsb.2006.05.009 (2007)). A total of ˜250,000 0° particles projections were picked representing all the three βarr2 samples (with vehicle, Cmpd-30 or IP6) and windowed into 96×96-pixel images (with the RELION 2.1-beta-1 software package) and subjected to ISAC. […]

wild-type mouse T cells = assay type: cell-based; details: total T cells and CD4/CD8 subpopulations
Description: Chemotaxis assays were conducted similarly to those previously described Smith, J. S. et al. C-X-C Motif Chemokine Receptor 3 Splice Variants Differentially Activate Beta-Arrestins to Regulate Downstream Signaling Pathways. Mol Pharmacol 92, 136-150, doi:10.1124/mol.117.108522 (2017)). Briefly, mouse leukocytes, obtained by passing cells isolated from the spleen and subjected to erythrocyte lysis through a 70-μm filter, were suspended in RPMI 1640 medium containing 5% FBS. For the assay, 1×10^6 cells in 100 μl of medium were added to the top chamber of a 6.5 mm diameter, 5-μm pore polycarbonate Transwell insert (Costar). Subsequently, cells were treated with βarr small-molecule modulators or vehicle for 30 min, followed by increasing concentrations of CCL19 suspended in 600 μL of the medium in the bottom chamber for 2 hours at 37° C. T cells migrated to the bottom of chamber were recovered, resuspended, washed, stained with a Live/Dead marker (Aqua Dead, ThermoFisher) and antibodies to cell surface markers (CD3, CD4, CD8, and CD45), and fixed with paraformaldehyde. The number of migrated T cells was measured by flow cytometric analysis with a BD LSRII Flow cytometer. […] A 1:10 dilution of input cells was similarly analyzed. Specific T cell migration was calculated by dividing the number of migrated cells by the number of input cells.

ERK2-βarr2 complex = ERK2-βarr2 complex (Rattus norvegicus, UniProt P29067); experiment: Pull-down of 3×Flag-ERK2 with βarr2; assay type: binding; details: series of concentrations of compound
Sequence of ERK2-βarr2 complex (P29067 whole entry): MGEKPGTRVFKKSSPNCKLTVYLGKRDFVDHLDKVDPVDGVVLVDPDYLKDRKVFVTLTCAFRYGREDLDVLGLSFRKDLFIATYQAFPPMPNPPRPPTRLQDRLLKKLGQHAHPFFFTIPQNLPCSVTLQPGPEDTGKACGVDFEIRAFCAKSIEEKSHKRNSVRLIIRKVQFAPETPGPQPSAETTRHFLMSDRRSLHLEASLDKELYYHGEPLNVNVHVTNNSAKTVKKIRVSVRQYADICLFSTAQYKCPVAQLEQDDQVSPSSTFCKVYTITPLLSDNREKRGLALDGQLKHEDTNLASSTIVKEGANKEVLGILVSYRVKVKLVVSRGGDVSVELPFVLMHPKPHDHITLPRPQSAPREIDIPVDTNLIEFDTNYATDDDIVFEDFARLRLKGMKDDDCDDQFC
Sequence of ERK2-βarr2 complex (P28482 whole entry partner): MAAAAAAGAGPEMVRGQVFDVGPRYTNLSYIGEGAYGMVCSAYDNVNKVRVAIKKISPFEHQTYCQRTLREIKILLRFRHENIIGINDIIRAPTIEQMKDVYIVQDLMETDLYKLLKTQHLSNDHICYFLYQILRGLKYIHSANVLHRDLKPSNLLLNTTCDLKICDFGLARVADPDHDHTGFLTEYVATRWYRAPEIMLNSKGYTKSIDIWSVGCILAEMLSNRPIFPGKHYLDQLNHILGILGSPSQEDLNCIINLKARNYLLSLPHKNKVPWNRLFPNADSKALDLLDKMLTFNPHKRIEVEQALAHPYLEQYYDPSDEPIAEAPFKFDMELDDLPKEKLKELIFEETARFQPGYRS
Description: Given this surprising result on the ability of Cmpd-30 to activate ERK βarr1/2-dependent but receptor independent manner, next it was determined whether βarr2 and ERK2 can physically interact in the presence of Cmpd-30 by a pull-down assay. Purified 3×Flag-ERK2 was incubated with βarr2 in the presence of a series of concentrations of Cmpd-30 or vehicle.

Sequence of βarr2 (P29067 1-394): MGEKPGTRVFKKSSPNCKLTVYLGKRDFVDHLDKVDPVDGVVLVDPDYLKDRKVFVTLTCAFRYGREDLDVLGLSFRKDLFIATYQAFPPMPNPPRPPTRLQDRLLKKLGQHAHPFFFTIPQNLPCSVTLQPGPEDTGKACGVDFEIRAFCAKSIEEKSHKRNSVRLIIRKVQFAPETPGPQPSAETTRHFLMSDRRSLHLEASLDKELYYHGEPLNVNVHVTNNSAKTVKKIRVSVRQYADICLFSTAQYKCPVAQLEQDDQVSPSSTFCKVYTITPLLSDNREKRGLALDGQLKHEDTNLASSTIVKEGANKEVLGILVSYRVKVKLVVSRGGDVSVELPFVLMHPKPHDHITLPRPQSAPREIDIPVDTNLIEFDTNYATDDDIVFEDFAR

CN(C)c1n/c(=N/Cc2ccco2)ss1 [Cmpd-30, 5-(furan-2-ylmethylimino)-N,N-dimethyl-1,2,4-dithiazol-3-amine;hydrobromide]
particle average width of βarr2 class averages (βarr2; control βarr2 ~72 Å): 80-90 Å
class averages represented as homo-oligomers (dimers/trimers) (βarr2; control βarr 97% monomeric): 95%
CCL19-induced chemotaxis of T cells (wild-type mouse T cells): significantly impair
ERK2-βarr2 complex formation (ERK2-βarr2 complex): forms a complex in vitro with βarr2 in a Cmpd-30-dependent manner
